Data: ChEMBL document CHEMBL1127275, “Peptide based P21RAS farnesyl transferase inhibitors: systematic modification of the tetrapeptide CA1A2X motif” (Bioorg Med Chem Lett, 1994)

Biological target: Protein farnesyltransferase (Rattus norvegicus, UniProt Q02293+Q04631)
Test: In vitro inhibitory concentration evaluated against P21ras Farnesyl transferase
Type: protein-complex assay

SMILES | IC50 [µM]
CN[C@@H](CS)C(=O)N[C@H](C(=O)N[C@@H](Cc1ccccc1)C(=O)N[C@@H](CCSC)C(=O)O)C(C)C | 0.42
CSCC[C@H](NC(=O)[C@H](Cc1ccccc1)NC(=O)C1(NC(=O)[C@@H](N)CS)CCCCC1)C(=O)O | 1.2
CSCC[C@H](NC(=O)[C@H](Cc1ccccc1)NC(=O)[C@@H](NC(=O)[C@@H](N)CC(=O)O)C(C)C)C(=O)O | 250
CSCC[C@H](NC(=O)[C@@H](NC(=O)[C@@H](NC(=O)[C@@H](N)CS)C(C)C)c1ccccc1)C(=O)O | 0.696
CSCC[C@H](NC(=O)[C@H](Cc1ccccc1)NC(=O)[C@@H](NC(=O)[C@@H](N)Cc1cnc[nH]1)C(C)C)C(=O)O | 6.8
CSCC[C@H](NC(=O)[C@H](Cc1ccccc1)NC(=O)[C@@H](NC(=O)C[C@H](N)CS)C(C)C)C(=O)O | 1.8
CC(C)[C@H](NC(=O)[C@@H](N)CS)C(=O)N[C@@H](Cc1ccccc1)C(=O)N[C@@H](Cc1ccccc1)C(=O)O | 0.4
CSCC[C@H](NC(=O)[C@H](Cc1ccccc1)NC(=O)[C@@H](NC(=O)[C@@H](N)CCC(=O)O)C(C)C)C(=O)O | 120
CSCC[C@H](NC(=O)[C@H](Cc1ccccc1)NC(=O)C(C)(C)NC(=O)[C@@H](N)CS)C(=O)O | 0.4
CSCC[C@@H](C(=O)O)N(C)C(=O)[C@H](Cc1ccccc1)NC(=O)[C@@H](NC(=O)[C@@H](N)CS)C(C)C | 1.4
CCCC[C@H](NC(=O)[C@H](Cc1ccccc1)NC(=O)[C@@H](NC(=O)[C@@H](N)CS)C(C)C)C(=O)O | 0.95
CSCC[C@H](NC(=O)[C@H](Cc1ccccc1)NC(=O)[C@@H](NC(=O)[C@@H](N)CCS)C(C)C)C(=O)O (stereo in doubt; form 1) | 0.51
CSCC[C@H](NC(=O)[C@H](Cc1ccccc1)NC(=O)[C@@H](NC(=O)[C@@H](N)CCS)C(C)C)C(=O)O (stereo in doubt; form 2) | 2.7

The next molecules have a lower IC50 than those just listed; values first:

IC50 [µM] | SMILES
0.25 | CSCC[C@H](NC(=O)[C@H](Cc1ccccc1)NC(=O)[C@H](C(C)C)N(C)C(=O)[C@@H](N)CS)C(=O)O
0.126 | CSCC[C@H](NC(=O)[C@H](Cc1ccccc1)NC[C@@H](NC(=O)[C@@H](N)CS)C(C)C)C(=O)O
0.36 | CSCC[C@H](NC(=O)[C@H](Cc1ccccc1)N(C)C(=O)[C@@H](NC(=O)[C@@H](N)CS)C(C)C)C(=O)O
0.12 | CSCC[C@H](NC(=O)[C@H](CCc1ccccc1)NC(=O)[C@@H](NC(=O)[C@@H](N)CS)C(C)C)C(=O)O
0.017 | CSCC[C@H](NC(=S)[C@H](Cc1ccccc1)NC(=O)[C@@H](NC(=O)[C@@H](N)CS)C(C)C)C(=O)O
0.014 | CSCC[C@H](NC(=O)[C@H](Cc1c[nH]c2ccccc12)NC(=O)[C@@H](NC(=O)[C@@H](N)CS)C(C)C)C(=O)O
0.012 | CSCC[C@H](NC(=O)[C@H](Cc1ccccc1)NC(=O)[C@@H](NC[C@@H](N)CS)C(C)C)C(=O)O
0.029 | CSCC[C@H](NC(=O)[C@@H](NC(=O)[C@@H](NC[C@@H](N)CS)C(C)C)C(C)C)C(=O)O
0.012 | CSCC[C@H](NC(=O)[C@H](Cc1ccc2ccccc2c1)NC(=O)[C@@H](NC(=O)[C@@H](N)CS)C(C)C)C(=O)O
0.068 | CSCC[C@H](NC(=O)[C@@H](NC(=O)[C@@H](NC(=O)[C@@H](N)CS)C(C)C)C(C)C)C(=O)O
0.241 | CSCC[C@H](NC(=O)[C@H](Cc1ccccc1)NC(=O)[C@H](C)NC(=O)[C@@H](N)CS)C(=O)O
